Measured values taken from PubChem BioAssay (NCI).
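Where inhibition never reached the appropriate level, the endpoint shown equals the highest concentration tested. Otherwise, values were interpolated linearly from a five-concentration, 48-hour dose response in 96-well plates. TGI denotes the concentration required for complete inhibition of growth.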 *1 amine or outer side, *2 acyl side, *3 side chain or, on linkers, in order; H or OH if unused. Where a SMILES comes first, the peptide text is derived from it. Bridges are numbered along the chain shown (N, C = ends). [ ]: non-standard residue; d: D form. ξ: configuration not given here. X4 = CCC(C)C(N[*:1])C(O)CC(=O)O[C@H](C(=O)C(C)C(=O)[*:2])C(C)C; NMeY = CN[C@@H](Cc1ccc(O)cc1)C(=O)O; X9 = O=C([C@@H]1CC(O)CN1[*:1])[*:2]; ξNMeL = CNC(CC(C)C)C(=O)O; ξT = CC(O)C(N)C(=O)O

Tests used:
Assay in all cases: DTP human tumour cell line panel, 48 h
KM20L2 colon = tested on: KM20L2 colon
XF 498 CNS = tested on: XF 498 CNS
DMS 114 small cell lung = tested on: DMS 114 small cell lung
HOP-18 NSCLC = tested on: HOP-18 NSCLC
RXF-631 renal = tested on: RXF-631 renal
DMS 273 small cell lung = tested on: DMS 273 small cell lung
MDA-N = tested on: MDA-N

| SMILES | TGI (KM20L2 colon) [µM] | TGI (XF 498 CNS) [µM] | TGI (DMS 114 small cell lung) [µM] | TGI (HOP-18 NSCLC) [µM] | TGI (RXF-631 renal) [µM] | TGI (DMS 273 small cell lung) [µM] | TGI (MDA-N) [µM] |
| --- | --- | --- | --- | --- | --- | --- | --- |
| C/C(=N\NC(N)=S)c1ccc(/C(C)=N/NC(N)=S)cc1 | > 100 | > 100 | > 100 | > 100 | > 100 | – | – |
| O=S(=O)(O)C(F)(F)C(F)(F)C(F)(F)C(F)(F)F | > 100 | > 100 | > 100 | > 100 | – | > 100 | – |
| C/C(=N\NC(N)=S)c1ccc2c(c1)OCO2 | > 100 | > 100 | > 100 | > 100 | > 100 | – | – |
| O=C1C(NCCO)=C(N2CC2)C(=O)C(NCCO)=C1N1CC1 | > 100 | > 100 | > 50.9 | > 100 | – | > 40 | > 100 |
| Cc1cccc(C(C)(C)C)c1NC(=O)CC1C(=O)Nc2ccccc2S1=O (stereo unspecified) | > 100 | > 100 | – | – | > 100 | > 100 | – |
| O=[N+]([O-])c1ccc(Cc2nc3ccccc3s2)cc1 | > 100 | > 100 | > 100 | > 100 | – | > 100 | – |
| N=C(c1ccccc1)N1CCCCC1 | > 100 | – | > 100 | > 100 | – | > 100 | – |
| CC(C)=CC(=O)Cc1nc2ccccc2[nH]c1=O | > 100 | – | – | > 100 | > 100 | > 100 | – |
| COc1ccc(C2(CN(C)C)COc3cc(OC)c(OC)cc3C2=O)cc1OC (stereo unspecified) | > 100 | > 100 | 78.3 | > 100 | > 100 | – | – |
| CCN=C1NN=C(c2ccccc2)c2cc(Cl)ccc2N1 | – | 45.2 | 43.9 | > 100 | 41.7 | 26.2 | – |
| C[C@]12CC[C@H]3[C@@H](CCC4=CC(=O)CC[C@@H]43)[C@@H]1CC[C@@H]2OC1(O)C(=O)c2ccccc2C1=O | – | – | – | – | – | – | 35.1 |
| COc1cc2c(cc1OC)-c1c(cnn1C1OC(COC(C)=O)C(OC(C)=O)C(OC(C)=O)C1OC(C)=O)CC2 (stereo unspecified) | > 100 | – | > 100 | – | – | > 100 | – |
| CC1(C)OC2C(CO)OC(n3ccc(=O)[nH]c3=O)C2O1 (stereo unspecified) | – | – | – | – | – | – | > 100 |
| Cc1cccc(C(C)O)n1 (stereo unspecified) | – | – | – | – | – | – | > 100 |
| N#CCCc1nc2ccc(Br)cc2c(=O)n1-c1ccc(O)c([N+](=O)[O-])c1 | > 100 | 34.9 | – | – | 33.9 | – | – |
| O=C(Nc1ccc(C(F)(F)F)cc1[N+](=O)[O-])C(=O)C(C(=O)c1ccc2ccccc2c1)C1OC(=O)c2ccccc21 (stereo unspecified) | 38.7 | – | 40.5 | – | – | – | – |
| CCc1ccccc1NC(=O)CCc1nc(=S)[nH][nH]1 | > 100 | > 100 | > 100 | – | > 100 | > 100 | – |
| CSC(=S)N(C)c1nc(=[N+](C)C)ss1 | > 100 | > 100 | > 100 | > 100 | – | > 100 | – |

| SMILES | TGI (KM20L2 colon) [µM] | TGI (XF 498 CNS) [µM] | TGI (DMS 114 small cell lung) [µM] | TGI (HOP-18 NSCLC) [µM] | TGI (RXF-631 renal) [µM] | TGI (DMS 273 small cell lung) [µM] | TGI (MDA-N) [µM] |
| --- | --- | --- | --- | --- | --- | --- | --- |
| Cc1ccccc1C(C#N)/C(=N/NC(=O)c1cc2ccccc2cc1O)C(=O)Nc1cccc(Cl)c1 (stereo unspecified) | 94.4 | 73.3 | 51.8 | 73.4 | – | 32.5 | – |
| CCCOc1ccc(/C=C\c2cc(OC)c(OC)c(OC)c2)cc1 | > 100 | > 100 | > 100 | > 100 | > 100 | > 100 | – |
| CC(=O)/C=C1/c2ccccc2N(C(C)=O)C1O (stereo unspecified) | > 100 | – | > 100 | > 100 | – | > 100 | – |
| CCCOc1ccc(/C=C/c2cc(OC)c(OC)c(OC)c2)cc1 | 0.406 | 84.9 | – | > 100 | > 100 | 11.7 | – |
| CC1(C)CCSC(/C=C/c2ccccc2)=N1 | – | – | – | – | – | – | 24.8 |
| CCC(C)C1NC(=O)C(NC(=O)C(CC(C)C)N(C)C(=O)[C@@H]2CC(O)CN2)C(C)OC(=O)[C@H](Cc2ccc(OC)cc2)N(C)C(=O)[C@@H]2CCCN2C(=O)[C@H](CC(C)C)NC(=O)C(C)C(=O)[C@H](C(C)C)OC(=O)CC1O (stereo partly specified) (H-[X9][ξNMeL][ξT][X4]LP[NMeY](Me); ester 3-C) | – | – | – | – | – | – | 0.106 |
| CCOC(=O)C1CCC/C1=N\N=C(N)N (stereo unspecified) (tested in a mixture with another compound) | – | – | – | – | – | – | > 100 |
| O=C(CC(=O)Nc1ccc(Cl)cc1)NNCC(=O)Nc1nc(-c2ccccc2)cs1 | > 100 | > 100 | > 100 | > 100 | – | > 100 | – |
| CC1C(=O)N=C2C(=CN(Cc3ccccc3)c3ccccc32)C(=O)N1C (stereo unspecified) | – | – | – | – | – | – | > 100 |
| CC1CCC2(OC1)OC1CC3C4CC=C5CC(OC6OC(CO)C(OC7OC(C)C(OC8OC(C)C(O)C(O)C8O)C(O)C7O)C(O)C6OC6OC(C)C(O)C(O)C6O)CCC5(C)C4CCC3(C)C1C2C (stereo unspecified) | – | – | – | – | – | – | 1.43 |
| CCNC(=O)C(O)C1(O)CCC2[C@@H]3CCC4=CC(=O)C=C[C@]4(C)C3[C@@H](O)C[C@@]21C (stereo partly specified) | > 100 | > 100 | > 100 | > 100 | > 100 | > 100 | – |
| COc1ccc2[nH]c3c(cnn4cnnc34)c2c1 | > 100 | – | > 100 | > 100 | > 100 | > 100 | – |
| Cc1ccc2sc3cc(=O)cc(C)c-3nc2c1 | > 100 | – | > 100 | > 100 | > 100 | > 100 | – |
| O=C1CCC(c2nc3ccccc3o2)C(=O)N1 (stereo unspecified) | > 100 | – | > 100 | > 100 | > 100 | > 100 | – |
| O=C(O)CC(Cc1ccc2c(c1)OCO2)C(=O)O (stereo unspecified) | – | – | – | – | – | – | > 100 |
| COC(=O)c1nc(-c2ccc(Cl)c(Cl)c2)nc2ccccc12 | > 100 | 19.7 | > 100 | 4.99 | > 100 | > 100 | – |
| Cc1cc2c(cn1)C(=O)OCC2 | > 100 | > 100 | > 100 | > 100 | – | – | – |
